The values below come from ChEMBL document CHEMBL1159177, “Novel A-ring cleaved analogs of oleanolic and ursolic acids which affect growth regulation in NRP.152 prostate cells” (Bioorg Med Chem Lett, 1997).

The assay is described as follows: In vitro inhibitory concentration against cell proliferation of nonmalignant, nontumerigenic prostate cells (NRP.152). It counts as functional, cell-based. As to conditions: Rattus norvegicus.

`C=C(C)[C@@H]1CC[C@]2(C)[C@H](CC=C3C4[C@@H](C)[C@H](C)CC[C@]4(C(=O)O)CC[C@]32C)[C@@]1(C)CCC(=O)O` (some centres not stated) returned an IC50 of over 5 µM.

Regarding `CC(C)[C@@H]1CC[C@]2(C)[C@H](CC=C3C4CC(C)(C)CC[C@]4(C(=O)O)CC[C@]32C)[C@@]1(C)CCCN` (some centres not stated), the midpoint of inhibition, the IC50, lay at 0.7 µM.

Regarding `C=C(C)[C@@H]1CC[C@]2(C)[C@H](CC=C3C4CC(C)(C)CC[C@]4(C(=O)O)CC[C@]32C)[C@@]1(C)CCC#N` (some centres not stated), the IC50 amounted to 3.8 µM.

Compound `C=C(C)[C@@H]1CC[C@]2(C)[C@H](CC=C3C4CC(C)(C)CC[C@]4(C(=O)O)CC[C@]32C)[C@@]1(C)CCC(=O)O` (some centres not stated) registered an IC50 of over 5 µM.

In turn, `CC1(C)CC[C@]2(C(=O)O)CC[C@]3(C)C(=CC[C@@H]4[C@@]5(C)CC[C@H](O)C(C)(C)[C@@H]5CC[C@]43C)[C@@H]2C1` [OLEANOLIC_ACID] came in with an IC50 of over 5 µM.

Take `C[C@@H]1CC[C@]2(C(=O)O)CC[C@]3(C)C(=CC[C@@H]4[C@@]5(C)CC[C@H](O)C(C)(C)[C@@H]5CC[C@]43C)C2[C@H]1C` (some centres not stated): the IC50 is over 5 µM.

For the compound `C=C(C)[C@@H]1CC[C@]2(C)[C@H](CC=C3C4CC(C)(C)CC[C@]4(C(=O)O)CC[C@]32C)[C@@]1(C)CCC=O` (some centres not stated), it took 1.5 µM to reach half-maximal inhibition (IC50).

As for `CC1(C)CC[C@]2(C(=O)O)CC[C@]3(C)C(=CC[C@@H]4[C@@]5(C)CCC(=O)C(C)(C)[C@@H]5CC[C@]43C)[C@@H]2C1` [OLEANONIC ACID], the IC50 is over 5 µM.

Compound `C=C(C)[C@@H]1CC[C@]2(C)[C@H](CC=C3C4[C@@H](C)[C@H](C)CC[C@]4(C(=O)O)CC[C@]32C)[C@@]1(C)CCC=O` (some centres not stated) registered an IC50 of 2.4 µM.

Consider `CC(C)[C@@H]1CC[C@]2(C)[C@H](CC=C3C4[C@@H](C)[C@H](C)CC[C@]4(C(=O)O)CC[C@]32C)[C@@]1(C)CCCN` (some centres not stated), for which the IC50 is 0.3 µM.

`C=C(C)[C@@H]1CC[C@]2(C)[C@H](CC=C3C4[C@@H](C)[C@H](C)CC[C@]4(C(=O)O)CC[C@]32C)[C@@]1(C)CCC#N` (some centres not stated) returned an IC50 of over 5 µM.

With `C[C@@H]1CC[C@]2(C(=O)O)CC[C@]3(C)C(=CC[C@@H]4[C@@]5(C)CCC(=O)C(C)(C)[C@@H]5CC[C@]43C)C2[C@H]1C` (some centres not stated), the IC50 is over 5 µM.

For orientation: IC50 means the concentration that gives 50% inhibition. High values mean weaker potency, low ones greater potency.
